Converted amounts (≈) assume the structure as drawn. Where two headings read alike, the source gives them in different places. Some results are limits rather than exact numbers.

Consider five molecules from patent publication US8663914B2, “System and method for controlling bacterial cells with weak electric currents” (Syracuse University, priority 2009, dated 2014).

Test [1] relates to E. coli HM22 persister cells. Kind of test: ROS accumulation (H2DCFDA fluorescence) and CFU count of E. coli HM22 persister cells treated with current and/or H2O2. The format is cell-based. The protocol: Thus, the treatment could render the persister cells more susceptible to external ROS. To test this hypothesis, we treated E. coli HM22 persister cells with 100 μA for 20 min and followed by treatment with and without H2O2 (500 μM) for 1 h. These cells were then split into two parts: one for microscopic analysis and the other for CFU count. For microscopic study, cells were treated with 200 μM dichlorodihydrofluorescein diacetate (H2DCFDA, Sigma-Aldrich, St. Louis, Mo.) for 30 min in dark at room temperature. After incubation, cells were spin down and resuspended in PBS buffer for visualization using a fluorescence microscope (Axio Imager M1, ZEISS, Jena, Germany). The dye H2DCFDA can penetrate bacterial cells and get cleaved by cellular esterase to produce H2DCF. If there is any ROS present, this H2DCF will be converted to DCF and give fluorescence (Invitrogen, USA). […] For the CFU count, cells were plated on LB plates supplemented with DPA and incubated overnight at 37° C.

For test [2], the system named is planktonic B. subtilis BE1500. Kind of test: Minimum inhibitory concentration of ampicillin on planktonic cells (OD600, 96-well plate). The format is cell-based. The note with it: Bacillus subtilis; LB medium, 24 hours, 37° C. The procedure:
Determination of Minimum Inhibitory Concentration and Minimum Bactericidal Concentrations. To determine the minimum inhibitory concentrations (MICs) of ampicillin on planktonic cells, B. subtilis 168 and B. subtilis BE1500 were cultured in LB medium overnight as described above. The overnight cultures were subcultured by a 1:1000 dilution in LB medium containing various concentrations of ampicillin with seven replicates in a 96-well plate and allowed to grow at 37° C. with shaking at 200 rpm for 24 hours. The OD600 was measured immediately after inoculations and at 24 hours after inoculation with a microplate reader (Model EL808, BioTek Instruments, Winooski, Vt.).

Test [3] relates to B. subtilis BE1500 biofilms. Kind of test: Treatment of B. subtilis BE1500 biofilms with ampicillin and/or DC (CFU count). Type of test: cell-based. The protocol:
MIC is not a useful measurement of the response of biofilms to antibiotics because antibiotics added in the growth medium before inoculation could kill planktonic cells before they can form a biofilm. Therefore it is important to characterize the minimum bactericidal concentration (MBC) of ampicillin on established biofilms. B. subtilis BE1500 was cultured overnight as described above. Flat stainless steel electrodes were placed in a 100 mm petri dish with 20 mL LB medium, which was inoculated with 20 μL of an overnight culture. Biofilms were allowed to develop for 48 hours at 37° C. without shaking. The electrodes with biofilms were gently washed three times in 0.85% NaCl buffer and immersed in LB medium containing various concentrations of ampicillin for 15 min. Immediately after treatment, the electrodes with biofilms were placed in a 15 mL polystyrene test tube (Fisher Scientific) containing 4 mL 0.85% NaCl buffer and sonicated for 2 min to remove the biofilm cells from the surface. The stainless steel electrode was then removed and the tube was vortexed for 30 s to break up any remaining cell clusters. CFUs were counted after spreading the buffer with cells on LB agar plates and incubated overnight at 37° C.
Treatment of Biofilm Cultures with Ampicillin and DC. B. subtilis BE1500 biofilms were prepared as described for MBC experiments. Prior to treatment, biofilms were gently washed three times with 0.85% NaCl buffer. Each stainless steel coupon with biofilm was placed as the working electrode in the electrochemical cell cuvette shown in FIG. 16. Prior to placing the electrode with biofilm in the cuvette, 3 mL LB medium was added to the cuvette to prevent the biofilm from drying out. Samples were treated for 15 min with 0, 25, 83 and 250 μA/cm^2. Immediately after treatment, the biofilms were placed in a 15 mL polystyrene test tube containing 4 mL 0.85% NaCl buffer and sonicated for 2 min to remove the biofilm from electrode. The stainless steel electrode was then removed and the tube containing the cells and buffer was vortexed for 30 s to break up any remaining cell clusters. Cell densities were determined by plating the cultures on LB/agar plates and counting CFUs. The effect of current-generated ions was tested in the same way except that the cells were incubated in pre-treated LB in the absence of a current.

Another test has as its system B. subtilis 168. The note with it: reported in the literature; cited from earlier work.
In test [4] the test system is E. coli HM22 persister cells. The format is cell-based. Particulars: 0.85% NaCl buffer. The protocol:
To evaluate the effects of electric currents, the persister cells were first isolated as described previously. Briefly, the exponential culture of HM22 at optical density at 600 nm (OD600) of 0.3 in LB medium was treated with 100 μg/mL ampicillin for 3 h to kill and lyse the normal cells. The persister cells were then collected by centrifugation at 8000 rpm at 4° C. for 10 min and resuspended in 0.85% NaCl buffer. Electrodes with a dimension of 1 cm×5.6 cm were cut from a flat 304L stainless steel sheet (MSC; Melville, N.Y.) or graphite sheet (McMaster-CARR, Santa Fe Springs, Calif.). The same material was used for both the counter electrode and working electrode, which were placed into a 4.5 mL standard-style polystyrene cuvette (Fisher Scientific; Hampton, N.H.). A 0.48 mm diameter silver wire (A-M Systems; Sequim, Wash.) was placed in bleach for 30 min to produce an Ag/AgCl reference electrode. The bottom 1″ of a borosilicate glass Pasteur pipette (Fisher) was cut and the reference wire was placed inside to prevent contact with the working or counter electrode. An AFCBP1 potentiostat/galvanostat (Pine Instrument Company, Grove City, Pa.) was connected via alligator clamps to the electrodes and used to control the current. The volume of medium in the fully-constructed electrochemical cell was 3 mL (see FIG. 2).

The test system of the next test is P. aeruginosa PAO1. Particulars: ciprofloxacin up to 200 μg/mL, 3.5 h, overnight culture.
The next test has as its system E. coli HM22 biofilms. Kind of test: Killing of E. coli HM22 biofilm cells on 304L stainless steel coupons by tobramycin and/or direct current (CFU count). Type of test: cell-based. The protocol: To determine if electric currents are also effective in killing persister cells in biofilms, E. coli HM22 biofilms were cultured on 304L stainless steel coupons. The biofilm-coated coupons were then used as anodic or cathodic electrode, and treated with direct current alone or with tobramycin together. Immediately after treatment, the cells were removed from the biofilm-coated coupons by sonication and vertexing. A portion of the cells was directly plated on LB+DPA plates to quantify the total number of viable cells by counting CFU, the other part of the sample was treated with 100 μg/mL ampicillin for another 3 h and plated on LB+DPA plates to quantify the number of the viable persister cells. This approach allowed us to study the killing effects on normal and persister cells separately.
However, treatments with 75 μA/cm^2 alone for 60 min reduced the number of viable persister cells by 3.5 logs. After treating biofilms with currents and tobramycin together for 60 min, the number of viable persister cells was reduced by 5.4 log (nearly complete killing, FIG. 4). Thus, synergy between electric currents and antibiotics also exist for killing persister cells in biofilms.

The subject of the next test is P. aeruginosa PAO1 cells. Kind of test: Killing of P. aeruginosa PAO1 cells at exponential phase by tobramycin and/or electric current (CFU count). Type of test: cell-based. The protocol: Continued experiments, for example, have already shown that the effects of electric current and synergy with antibiotics is not species specific, as similar results were shown using P. aeruginosa. The experiments were conducted in the same way as described for E. coli HM22. Briefly, an overnight culture of P. aeruginosa PAO1 was used to inoculate LB medium to an OD600 of ˜0.005 (1:1000 dilution of an overnight culture with LB) and incubated till OD600 reached ˜0.7. Then the cells were washed twice with 0.85% NaCl buffer and treated in the same way as described for planktonic E. coli cells. […] Treatment with 75 μA/cm^2 for 60 min reduced the number of viable P. aeruginosa PAO1 cells by 3 logs.

The subject of test [5] is P. aeruginosa PAO1 persister cells. Kind of test: Killing of P. aeruginosa PAO1 persister cells by tobramycin with electric current or pretreated buffer (CFU count). Type of test: cell-based. The procedure: Thus, the 1% cells that survived the treatment were persister cells and treatment with 200 μg/mL Cip was used in the following experiments to harvest persister cells and ensure the complete killing of normal cells.
However, treatment with 75 μA/cm^2 (500 μA total) current reduced the number of viable persisters by ˜2.5 logs and another 2 logs of killing was obtained when treating with Tob together, as shown in FIG. 12. […] This is a significant advantage compared to traditional antibiotics, which commonly fail to kill bacterial cells that are in stationary phase or are persisters.
To understand if the killing by electric currents was due to the ions generated by electrochemical reactions, P. aeruginosa PAO1 persister cells were also treated with pretreated buffer, which was prepared by treating 0.85% NaCl buffer with SS304 stainless steel electrodes for the same current level and duration as used for the above experiments. The pretreated buffers were collected after 20, 40 or 60 min of treatment. P. aeruginosa PAO1 persister cells were collected as described above and resuspended in the pretreated buffers in the presence and absence of Tob. The cells were then incubated at room temperature without shaking for up to 1 h and samples were collected every 20 min to count CFU. […] The generation of ROS as described in E. coli HM22 data could be partially responsible for the killing. In addition, no synergy was observed between pretreated buffer and 1.5 μg/mL Tob.

[6] abbreviates: tobramycin alone, 20 μg/mL or 150 μg/mL, compared to untreated control.

For `OO` [H2O2], the “accumulation of ROS in persister cells” value in test [1] (H2O2 500 μM, 1 h, H2DCFDA fluorescence) is reported as “caused accumulation of ROS”. For the same molecule, the “killing of persister cells (CFU)” value in [1] (electric current (100 μA, 20 min) followed by H2O2 500 μM for 1 h, versus either alone) is “killed more persister cells than either the EC or H2O2 alone”.

The MIC is the smallest concentration in the dilution series that meets the test's criterion for growth inhibition. For orientation: viability means a read-out of living cells in per cent, often relative to untreated cells. On to `CC1(C)S[C@@H]2[C@H](NC(=O)[C@H](N)c3ccccc3)C(=O)N2[C@H]1C(=O)O` [ampicillin], for which the MIC is at most 2 mg/L in test [2] and 0.2 mg/L (≈ 0.572 µM) with B. subtilis 168. Moreover, in test [3] (50 μg/mL ampicillin and 500 μA current, graphite electrodes, chlorine-free M56 buffer, versus current alone), the “change in killing on adding ampicillin to current” value was “slight decrease in killing”. For the same molecule, in [3] (1000 μg/mL ampicillin alone for 15 min), the biofilm cells killed is 59%. The “synergy of DC and ampicillin on biofilms” value in [3] (83 μA/cm^2 DC and ampicillin together, stainless steel electrodes) was “no apparent synergy”. Besides, the inhibition at 50 µg/mL in test [3] (Bacillus subtilis, BE1500BIOFILMS, 0.25 h, 50 μg/mL ampicillin with 500 μA DC current, 15 min, graphite electrodes, read-out: decrease in cell viability) was determined as 44%; in [3] (Bacillus subtilis, BE1500BIOFILMS, 0.25 h, read-out: decrease in cell viability, 50 μg/mL ampicillin with 83 μA/cm^2 (500 μA) DC, 15 min, 37° C., stainless steel electrodes, LB, versus antibiotic alone) it was 93%. In test [3] (Bacillus subtilis, BE1500BIOFILMS, 0.25 h, 100 μg/mL ampicillin with 83 μA/cm^2 DC, 15 min, 37° C., stainless steel electrodes, versus antibiotic alone, read-out: decrease in cell viability), the inhibition at 100 µg/mL was found to be 79%. Besides, in test [3] (Bacillus subtilis, BE1500BIOFILMS, 0.25 h, 1000 μg/mL ampicillin with 83 μA/cm^2 DC, 15 min, 37° C., stainless steel electrodes, versus antibiotic alone, read-out: decrease in cell viability), the inhibition at 1000 µg/mL worked out at 86%. Moreover, the viability at 50 µg/mL in [3] (Bacillus subtilis, BE1500BIOFILMS, 50 μg/mL ampicillin with 500 μA DC current, graphite electrodes, chlorine-free M56 buffer, read-out: viability of biofilm cells (untreated control normalized as 100%)) is 74%.

For the molecule `CCn1nc(C(=O)O)c(=O)c2cc3c(cc21)OCO3` [cinoxacin], the “reduction in the number of viable persister cells” value was “no apparent reduction” in test [4] (20 μg/mL cinoxacin alone, graphite electrodes cell, 60 min) and “more than 5 log” in test [4] (20 μg/mL cinoxacin together with 75 μA/cm^2 current, graphite electrodes).

Consider `O=C(O)c1cn(C2CC2)c2cc(N3CCNCC3)c(F)cc2c1=O` [ciprofloxacin], for which the “cells that survived the treatment” value with P. aeruginosa PAO1 is 1%.

Regarding `NC[C@H]1O[C@H](O[C@H]2[C@H](O)[C@@H](O[C@H]3O[C@H](CO)[C@@H](O)[C@H](N)[C@H]3O)[C@H](N)C[C@@H]2N)[C@H](N)C[C@@H]1O` [tobramycin], the “synergy with electric current in killing persister cells” value in test [4] (tobramycin with 75 μA/cm^2 DC, graphite electrodes) was “synergistic effect”. Further, the “reduction of number of viable persister cells in biofilm” value in the test on E. coli HM22 biofilms (currents (75 μA/cm^2 DC) and tobramycin (20 μg/mL) together for 60 min) was determined as 5.4 log. In addition, in the test with E. coli HM22 biofilms (setting [6]), the “reduction in number of viable persister cells in biofilm” value is “no significant reduction”. In the test on E. coli HM22 biofilms (setting [6]), the “reduction in total number of viable cells in biofilm” value is “no significant reduction”. In addition, the “killing of viable cells” value in the test on P. aeruginosa PAO1 cells (1.5 μg/mL Tob alone, 0.85% NaCl buffer) is listed as “did not cause any significant killing”; in the test on P. aeruginosa PAO1 cells (1.5 μg/mL Tob combined with 75 μA/cm^2 for 60 min), “up to 5 logs”. In addition, the “killing of persister cells” value in test [5] (1.5 μg/mL Tob alone) is listed as “not able to kill”. In addition, the “synergy between pretreated buffer and Tob” value in test [5] (1.5 μg/mL Tob in 0.85% NaCl buffer pretreated with SS304 electrodes, no current, up to 1 h) was “no synergy”. Also, in test [5] (1.5 μg/mL Tob together with 75 μA/cm^2 (500 μA total) current), the “additional killing of persister cells beyond current alone” value was 2 logs.
